Test results published in the NIST ThermoML archive (doi:10.1021/je0501890).
± gives the expanded uncertainty stated by the source.

Conditions: 298.15 K; 101.33 kPa; Liquid

SMILES | mass density [kg/m3] | viscosity [mPa·s]
CCCCCCCO [heptan-1-ol] | 818.48 ± 0.68 | 5.818 ± 0.079
ClC(Cl)C(Cl)Cl [1,1,2,2-tetrachloroethane] | 1586.65 ± 1.6 | 1.431 ± 0.019
ClC=C(Cl)Cl [trichloroethene] | 1455.65 ± 1.3 | 0.536 ± 0.008
ClC(Cl)=C(Cl)Cl [tetrachloroethene] | 1613.2 ± 1.6 | 0.839 ± 0.012
CC(Cl)(Cl)Cl [1,1,1-trichloroethane] | 1329.55 ± 1.1 | 0.789 ± 0.011
ClCCCl [1,2-dichloroethane] | 1245.64 ± 0.92 | 0.776 ± 0.011
